{
  "source": "paper PMC6445123",
  "about": "(Scientific Reports, 2019)",
  "type_in_all_cases": "biochemical",
  "key": {"recombinant active Casp6": {"biological_target": "T1, recombinant active Casp6 (Homo sapiens, UniProt P55212, INS179NQTEKLDTNITEVD)", "T1 construct": "generating mainly large subunit with a linker (LS-L), small subunit (SS), and a minor amount of large subunit (LS); His (C); made in house; host or cells: E. coli BL21(DE3)pLysS", "T1 sequence (P55212 24-193 limits assumed)": "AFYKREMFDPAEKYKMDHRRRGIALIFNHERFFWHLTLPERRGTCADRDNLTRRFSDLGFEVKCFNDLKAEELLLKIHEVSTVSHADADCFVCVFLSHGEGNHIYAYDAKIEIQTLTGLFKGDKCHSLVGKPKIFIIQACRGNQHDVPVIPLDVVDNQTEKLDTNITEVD", "T1 sequence (P55212 194-293 limits assumed)": "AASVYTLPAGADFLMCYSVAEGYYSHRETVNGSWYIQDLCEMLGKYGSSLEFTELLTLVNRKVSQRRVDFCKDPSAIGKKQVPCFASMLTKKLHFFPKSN", "test": "Colorimetric Ac-VEID-pNA cleavage assay", "conditions": "100 µM compound, 200 µM Ac-VEID-pNA, 200 nM Casp6", "protocol": "To assess the potency of in silico hits, a fluorescence-based Ac-VEID-AFC cleavage assay was used to measure recombinant active Casp6 reaction rate in the absence or presence of 100 µM concentration of compounds. A 30% inhibition cut off was arbitrarily chosen for further investigation of putative inhibitors. […] AFC signal interference by compound intrinsic fluorescence was ruled out (Fig. S4). Casp6 inhibition was confirmed for seven compounds (C7, C13, C14, S2, S10, S11 and S13) using a colorimetric Ac-VEID-pNA cleavage assay (Table 2, Fig. S3).\nIn fluorescence-based Casp6 activity assay, 10 µM Ac-VEID-AFC was added to 20 nM Casp6 in SB with 100 μM compound and 1% dimethyl sulfoxide (DMSO), and reaction rate was measured for 20 min at 37 °C as above. Compound potency was calculated by normalising Ac-VEID-AFC cleavage rate to 1% DMSO control. In colorimetric Casp6 activity assay, 200 µM Ac-VEID-pNA (N-acetyl-Val-Glu-Ile-Asp-p-nitroanilide, Enzo Life Sciences) was added to 200 nM Casp6 in SB with 100 μM compound, and Ac-VEID-pNA cleavage rate was measured at 37 °C for 30 min in clear 96-well plate (Sartstedt, Nümbrecht, Germany) using Synergy H4 plate reader at 405 nm. Absorbance was converted to the released pNA amount based on a standard curve of 0–250 µM pNA. Cleavage rates were calculated from the linear assay phase and were normalised to 1% DMSO control. In Casp6-C163A cleavage assay, 0.5 ng/µl Casp6-WT was preincubated with 100 µM inhibitor, 5 µM Q-VD-OPh or 1% DMSO in SB (30 min, RT), followed by transfer on ice, addition of 0.5 µg/µl Casp6-C163A, and incubation (37 °C, 5, 10 and 15 min). Reactions were stopped by adding SDS-PAGE sample buffer (62.5 mM Tris pH 6.8, 2% SDS, 0.1 M DTT, 0.01% Bromphenol Blue, 10% glycerol) and heating (5 min, 95 °C). Samples (2 µl) were analysed on 15% SDS-PAGE gels, proteins were stained with Coomassie blue, and gels were de-stained with 10% acetic acid. The intensities of protein bands were quantified from scanned gels using ImageJ. The band intensity of Casp6-C163A without a prodomain was plotted against the time and the Casp6-C163A cleavage rates were calculated from the slopes of linear plots. The % activity of Casp6-WT in the presence of inhibitors was calculated relative to DMSO control."}, "Casp6 [1]": {"biological_target": "T2, Casp6 (Homo sapiens, UniProt P55212, INS179NQTEKLDTNITEVD)", "T2 construct": "generating mainly large subunit with a linker (LS-L), small subunit (SS), and a minor amount of large subunit (LS); His (C); made in house; host or cells: E. coli BL21(DE3)pLysS", "T2 sequence (P55212 24-193 limits assumed)": "T1 sequence (P55212 24-193 limits assumed)", "T2 sequence (P55212 194-293 limits assumed)": "T1 sequence (P55212 194-293 limits assumed)", "test": "Determination of inhibition mechanism and Ki (Michaelis-Menten, Lineweaver-Burk plots)", "protocol": "The inhibition of Casp6 activity with S10G and C13 was reversible (Fig. S5). To determine mode of inhibition, kinetic analyses were conducted on Casp6 using S10G and C13 (Fig. 4a). […] (Fig. 4b).\nCompounds, S10G (2.5 µM, 4.2 µM, 10 µM), and C13 (5 µM, 14 µM, 50 µM), were added to 20 nM active site titrated Casp6 and enzyme activity was measured with eight different Ac-VEID-AFC substrate concentrations (5.0 μM–200 μM) using fluorescence-based Casp6 activity assay as above. The apparent KM and Vmax values were determined through nonlinear regression analysis of Michaelis-Menten plots (v vs. [S]) using GraphPad Prism 5. The inhibition mode was determined from the pattern of converging Lineweaver-Burk plots (1/v vs. 1/[S])[54]. The dissociation constant (Ki) for Casp6-inhibitor complex was determined from the x-axis intercept (which is equal to −Ki) in the plot of Lineweaver-Burk slopes vs. inhibitor concentration. Alternatively, inhibition model and Ki were determined by global fit of kinetic data to the competitive, noncompetitive, noncompetitive (mixed) or uncompetitive inhibition models using respective equations in GraphPad Prism 5."}, "Casp6 [2]": {"biological_target": "T2, Casp6", "test": "Reversibility of Casp6 inhibition (pre-incubation at 10-fold IC50, rapid 100-fold dilution)", "conditions": "recovery of activity after 60 min pre-incubation and 100-fold dilution", "protocol": "Supplementary Figure S5. Mechanism of Casp6 inhibition with C13 and S10G. (a) Inhibition of Casp6 with C13 (left panel) and S10G (right panel) is reversible. The recovery of Casp6 activity after 60 min pre-incubation with C13 and S10G at a concentration of inhibitor equal to 10-fold the IC50 value followed by a rapid 100-fold […]\n(1 picture or pasted object on this page, not shown here) […]\ndilution into Casp6 activity assay solution. The control samples DMSO and Q-VD-OPh were pre-incubated and diluted in the absence of inhibitor, and in the presence of an irreversible inhibitor Q-VD-OPh, respectively. Data points represent mean ± standard error of the mean (SEM) from three independent experiments. (b) Coomassie stain of SDS-PAGE of purified recombinant WT -, L200A-, and K284A-Casp6 (left panel) expressed from a full -length Casp6 encoding construct (Fig. 1c ), and copurified LS and SS of WT -, L200A-, and K284A-LS-SS-Casp6 (right panel). FL (full-length Casp6), ΔCasp6 (Casp6 without a prodomain), LS-L (large subunit with linker), LS (large subunit), and SS (small subunit) depict different bands of Casp6. (c) Michaelis-Menten kinetic plots (top panel) and calculated KM and Vmax values (bottom panel) for Casp6-WT-LS-SS (left panel), Casp6-L200A-LS-SS (middle panel), and Casp6-K284A-LS-SS (right panel) enzymatic activity in presence of 1% DMSO (0 µM C13) or increasing doses of C13. […]"}},
  "note": "pKi: −log10 of the molar value.",
  "data": [
    {"smiles": "COC(=O)c1cc(CNC(=O)C2Cc3ccccc3O2)cc(NC(=O)c2ccco2)c1", "note": "(stereo not shown) [Compound C13]", "values": [
      {"measurement": "inhibition at 100 µM", "setting": "recombinant active Casp6", "result": 86.7, "unit": "%"},
      {"measurement": "mode of inhibition", "setting": "Casp6 [1]; Lineweaver-Burk plot pattern", "result": "noncompetitive inhibition"},
      {"measurement": "pKi", "setting": "Casp6 [1]; from plot of Lineweaver-Burk slopes vs inhibitor concentration, Casp6, Ac-VEID-AFC, read-out: Ki (dissociation constant)", "result": 5.28},
      {"measurement": "reversibility of Casp6 inhibition", "setting": "Casp6 [2]", "result": "reversible"}
    ]}
  ]
}
